From BindingDB's records for doi:10.1016/0960-894X(95)00403-G (1995) come the findings set out here.

The nature of this test: Compound was tested for inhibiting [3H]N-Methyl-scopolamine Binding to Muscarinic acetylcholine receptor M4 in NG 108-15 Cell.

SMILES strings stand for the structures.

Consider `C[N+]1(C)CCC2(CC1)OC(=O)C(c1ccccc1)(c1ccccc1)O2`, for which the affinity corresponds to a Ki of 0.011 µM.
